Where a name gives a salt, the structure may show the parent alone. Activity calls are given as the source filed them. No cut-off for these calls is given here.
Assays:
[1] = target: T1, Protein cereblon/Virion infectivity factor (Human immunodeficiency virus type 1 group M subtype B (isolate NY5)(HIV-1)) (UniProt Q96SW2+P12504); experiment: PROTAC activity at CRBN (unknown origin)/Vif in HIV-1 TREX-hvif-15 cells assessed as reduction in Vif protein level at 50 uM by Western blotting analysis; format: cell-based; conditions: TREX-hvif-15 cell
[2] = system: Human immunodeficiency virus 1; experiment: Antiviral activity against HIV-1 IIIB infected in TZM-bl cells; format: functional, organism-based; conditions: Human immunodeficiency virus 1, IIIB
[3] = Therapeutic index, ratio of CC50 for human TZM-bl cells to EC50 for HIV IIIB infected in TZM-bl cells; format: toxicity, cell-based; conditions: read-out: Ratio CC50/EC50
[4] = Cytotoxicity against human TZM-bl cells; format: toxicity, cell-based
[5] = system: Human immunodeficiency virus 1; experiment: Antiviral activity against HIV-1 A17 infected in C8166 cells; format: functional, organism-based; conditions: Human immunodeficiency virus 1, A17, C8166
[6] = system: Human immunodeficiency virus 1; experiment: Antiviral activity against HIV-1 IIIB infected in C8166 cells; format: functional, organism-based; conditions: Human immunodeficiency virus 1, IIIB
[7] = system: Human immunodeficiency virus 1; experiment: Antiviral activity against HIV-1 KIZ002 infected in PHA-P stimulated PBMCs; format: functional, organism-based; conditions: Human immunodeficiency virus 1, KIZ002, PBMC
[8] = system: Human immunodeficiency virus 1; experiment: Antiviral activity against HIV-1 WAN infected in PHA-P stimulated PBMCs; format: functional, organism-based; conditions: Human immunodeficiency virus 1, WAN, PBMC
[9] = system: Human immunodeficiency virus 1; experiment: Antiviral activity against HIV1 at 1 uM measured after 2 to 4 hrs; format: functional, organism-based; conditions: time 2-4 hrs
[10] = system: Human immunodeficiency virus 1; experiment: Antiviral activity against HIV-1 G140S/Q148H infected in C8166 cells; format: functional, organism-based; conditions: Human immunodeficiency virus 1, G140S/Q148H
[11] = system: Human immunodeficiency virus 1; experiment: Antiviral activity against HIV-1 4755-5 infected in C8166 cells; format: functional, organism-based; conditions: Human immunodeficiency virus 1, 4755-5, C8166
[12] = system: Human immunodeficiency virus 1; experiment: Antiviral activity against HIV1 at 1 uM measured after 8 hrs; format: functional, organism-based
[13] = system: Human immunodeficiency virus 1; experiment: Antiviral activity against HIV-1 9498 infected in C8166 cells; format: functional, organism-based; conditions: Human immunodeficiency virus 1, 9498, C8166
[14] = target: T1, Protein cereblon/Virion infectivity factor (Human immunodeficiency virus type 1 group M subtype B (isolate NY5)(HIV-1)); experiment: PROTAC activity at CRBN (unknown origin)/Vif in HIV-1 TREX-hvif-15 cells assessed as reduction in Vif protein level at 50 uM pretreated with MG132 followed by compound addition and measured after 24 hrs by Western blotting analysis; format: cell-based; conditions: TREX-hvif-15 cell
[15] = system: Human immunodeficiency virus 1; experiment: Antiviral activity against HIV-1 2802 infected in C8166 cells; format: functional, organism-based; conditions: Human immunodeficiency virus 1, 2802, C8166

T1 sequence (P12504 whole entry, looked up): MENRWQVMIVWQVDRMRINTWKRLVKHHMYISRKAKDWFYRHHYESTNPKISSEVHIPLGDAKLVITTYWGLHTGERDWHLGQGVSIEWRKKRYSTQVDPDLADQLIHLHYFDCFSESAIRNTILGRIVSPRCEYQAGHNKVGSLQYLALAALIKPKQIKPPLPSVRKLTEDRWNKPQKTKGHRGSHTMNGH
T1 sequence (Q96SW2 whole entry, looked up): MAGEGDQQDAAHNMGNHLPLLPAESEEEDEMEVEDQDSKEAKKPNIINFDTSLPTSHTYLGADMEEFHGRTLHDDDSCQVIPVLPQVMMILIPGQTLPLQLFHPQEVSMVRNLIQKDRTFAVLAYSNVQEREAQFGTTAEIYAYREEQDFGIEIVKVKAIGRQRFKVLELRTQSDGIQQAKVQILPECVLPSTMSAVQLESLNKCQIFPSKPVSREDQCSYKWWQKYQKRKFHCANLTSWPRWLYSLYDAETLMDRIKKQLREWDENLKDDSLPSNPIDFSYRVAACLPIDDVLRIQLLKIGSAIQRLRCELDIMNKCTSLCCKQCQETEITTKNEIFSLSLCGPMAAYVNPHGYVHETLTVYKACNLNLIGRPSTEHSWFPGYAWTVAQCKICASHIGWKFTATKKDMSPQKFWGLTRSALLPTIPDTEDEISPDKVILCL

COc1ccc(O)cc1NC(=O)c1c(N)cccc1S(=O)(=O)c1ccc([N+](=O)[O-])cc1
Activity [1]: inactive
EC50 [2]: 2.14 µM
selectivity ratio [3]: > 93.5
CC50 [4]: > 200 µM

COc1ccc(OCC(=O)NCCCCCCCCCCNCC(=O)Nc2cccc3c2C(=O)N(C2CCC(=O)NC2=O)C3=O)cc1NC(=O)c1c(N)cccc1S(=O)(=O)c1ccc([N+](=O)[O-])cc1 (centres undefined)
EC50 [2]: 29 µM
selectivity ratio [3]: > 6.9
CC50 [4]: > 200 µM

COc1ccc(OCC(=O)NCCOCCOCCOCCNc2cccc3c2C(=O)N(C2CCC(=O)NC2=O)C3=O)cc1NC(=O)c1c(N)cccc1S(=O)(=O)c1ccc([N+](=O)[O-])cc1 (centres undefined)
EC50 [2]: > 100 µM
CC50 [4]: > 200 µM

COc1ccc(OCC(=O)NCCOCCOCCOCCNCC(=O)Nc2cccc3c2C(=O)N(C2CCC(=O)NC2=O)C3=O)cc1NC(=O)c1c(N)cccc1S(=O)(=O)c1ccc([N+](=O)[O-])cc1 (centres undefined)
EC50 [2]: 21.3 µM
selectivity ratio [3]: > 9.39
CC50 [4]: > 200 µM

COc1ccc(OCC(=O)NCCCCCCCCNc2cccc3c2C(=O)N(C2CCC(=O)NC2=O)C3=O)cc1NC(=O)c1c(N)cccc1Sc1ccc([N+](=O)[O-])cc1 (centres undefined)
EC50 [2]: > 100 µM
CC50 [4]: > 200 µM

COc1ccc(OCC(=O)NCCCCCCCCNCC(=O)Nc2cccc3c2C(=O)N(C2CCC(=O)NC2=O)C3=O)cc1NC(=O)c1c(N)cccc1Sc1ccc([N+](=O)[O-])cc1 (centres undefined)
EC50 [2]: > 100 µM
CC50 [4]: > 200 µM

COc1ccc(OCC(=O)NCCCCCCCCCCNc2cccc3c2C(=O)N(C2CCC(=O)NC2=O)C3=O)cc1NC(=O)c1c(N)cccc1Sc1ccc([N+](=O)[O-])cc1 (centres undefined)
EC50 [2]: > 100 µM
CC50 [4]: > 200 µM

COc1ccc(OCC(=O)NCCCCNCC(=O)Nc2cccc3c2C(=O)N(C2CCC(=O)NC2=O)C3=O)cc1NC(=O)c1c(N)cccc1Sc1ccc([N+](=O)[O-])cc1 (centres undefined)
EC50 [2]: > 100 µM
CC50 [4]: > 200 µM

COc1ccc(OCC(=O)NCCCCNCC(=O)Nc2cccc3c2C(=O)N(C2CCC(=O)NC2=O)C3=O)cc1NC(=O)c1c(N)cccc1S(=O)(=O)c1ccc([N+](=O)[O-])cc1 (centres undefined)
EC50 [2]: > 100 µM
CC50 [4]: > 200 µM

COc1ccc(OCC(=O)NCCNc2cccc3c2C(=O)N(C2CCC(=O)NC2=O)C3=O)cc1NC(=O)c1c(N)cccc1S(=O)(=O)c1ccc([N+](=O)[O-])cc1 (centres undefined)
EC50 [2]: > 100 µM
CC50 [4]: > 200 µM

Nc1ccn([C@@H]2CS[C@H](CO)O2)c(=O)n1 [LAMIVUDINE]
EC50 [5]: 0.28 µM
EC50 [6]: 0.16 µM
EC50 [7]: 0.09 µM
EC50 [8]: 0.15 µM
Activity [9]: Active
EC50 [10]: 5.61 µM
EC50 [11]: 76.9 µM
Activity [12]: inactive

COc1ccc(OCC(=O)NCCCCNc2cccc3c2C(=O)N(C2CCC(=O)NC2=O)C3=O)cc1NC(=O)c1c(N)cccc1S(=O)(=O)c1ccc([N+](=O)[O-])cc1 (centres undefined)
EC50 [2]: > 100 µM
CC50 [4]: > 200 µM

COc1ccc(OCC(=O)NCCNCC(=O)Nc2cccc3c2C(=O)N(C2CCC(=O)NC2=O)C3=O)cc1NC(=O)c1c(N)cccc1S(=O)(=O)c1ccc([N+](=O)[O-])cc1 (centres undefined)
EC50 [2]: > 100 µM
CC50 [4]: > 200 µM

COc1ccc(OCC(=O)NCCOCCNCC(=O)Nc2cccc3c2C(=O)N(C2CCC(=O)NC2=O)C3=O)cc1NC(=O)c1c(N)cccc1Sc1ccc([N+](=O)[O-])cc1 (centres undefined)
EC50 [2]: > 100 µM
CC50 [4]: > 200 µM

COc1ccc(OCC(=O)NCCCCCCNc2cccc3c2C(=O)N(C2CCC(=O)NC2=O)C3=O)cc1NC(=O)c1c(N)cccc1S(=O)(=O)c1ccc([N+](=O)[O-])cc1 (centres undefined)
EC50 [2]: > 100 µM
CC50 [4]: > 200 µM

COc1ccc(OCC(=O)NCCCCCCCCCCNc2cccc3c2C(=O)N(C2CCC(=O)NC2=O)C3=O)cc1NC(=O)c1c(N)cccc1S(=O)(=O)c1ccc([N+](=O)[O-])cc1 (centres undefined)
EC50 [2]: > 100 µM
CC50 [4]: > 200 µM

COc1ccc(OCC(=O)NCCOCCNc2cccc3c2C(=O)N(C2CCC(=O)NC2=O)C3=O)cc1NC(=O)c1c(N)cccc1Sc1ccc([N+](=O)[O-])cc1 (centres undefined)
EC50 [2]: > 100 µM
CC50 [4]: > 200 µM

COc1ccc(O)cc1NC(=O)c1c(N)cccc1Sc1ccc([N+](=O)[O-])cc1
Activity [1]: inactive
EC50 [2]: 5.97 µM
selectivity ratio [3]: > 33.5
CC50 [4]: > 200 µM

COc1ccc(OCC(=O)NCCCCCCNc2cccc3c2C(=O)N(C2CCC(=O)NC2=O)C3=O)cc1NC(=O)c1c(N)cccc1Sc1ccc([N+](=O)[O-])cc1 (centres undefined)
EC50 [2]: > 100 µM
CC50 [4]: > 200 µM

COc1ccc(OCC(=O)NCCOCCOCCNCC(=O)Nc2cccc3c2C(=O)N(C2CCC(=O)NC2=O)C3=O)cc1NC(=O)c1c(N)cccc1Sc1ccc([N+](=O)[O-])cc1 (centres undefined)
EC50 [2]: 53.1 µM
selectivity ratio [3]: > 3.77
CC50 [4]: > 200 µM

COc1ccc(OCC(=O)NCCCCCCNCC(=O)Nc2cccc3c2C(=O)N(C2CCC(=O)NC2=O)C3=O)cc1NC(=O)c1c(N)cccc1Sc1ccc([N+](=O)[O-])cc1 (centres undefined)
EC50 [2]: > 100 µM
CC50 [4]: > 200 µM

COc1ccc(OCC(=O)NCCCCCCCCNc2cccc3c2C(=O)N(C2CCC(=O)NC2=O)C3=O)cc1NC(=O)c1c(N)cccc1S(=O)(=O)c1ccc([N+](=O)[O-])cc1 (centres undefined)
EC50 [2]: > 100 µM
CC50 [4]: > 200 µM

COc1ccc(OCC(=O)NCCOCCOCCNc2cccc3c2C(=O)N(C2CCC(=O)NC2=O)C3=O)cc1NC(=O)c1c(N)cccc1S(=O)(=O)c1ccc([N+](=O)[O-])cc1 (centres undefined)
EC50 [2]: > 100 µM
CC50 [4]: > 200 µM

CC(C)OC(=O)OCOP(=O)(CO[C@H](C)Cn1cnc2c(N)ncnc21)OCOC(=O)OC(C)C [TENOFOVIR DISOPROXIL FUMARATE]
EC50 [2]: 0.005 µM
selectivity ratio [3]: > 43800
CC50 [4]: > 200 µM

COc1ccc(OCC(=O)NCCNCC(=O)Nc2cccc3c2C(=O)N(C2CCC(=O)NC2=O)C3=O)cc1NC(=O)c1c(N)cccc1Sc1ccc([N+](=O)[O-])cc1 (centres undefined)
EC50 [2]: > 100 µM
CC50 [4]: > 200 µM

COc1ccc(OCC(=O)NCCNc2cccc3c2C(=O)N(C2CCC(=O)NC2=O)C3=O)cc1NC(=O)c1c(N)cccc1Sc1ccc([N+](=O)[O-])cc1 (centres undefined)
EC50 [2]: > 100 µM
CC50 [4]: > 200 µM

COc1ccc(OCC(=O)NCCCCCCCCNCC(=O)Nc2cccc3c2C(=O)N(C2CCC(=O)NC2=O)C3=O)cc1NC(=O)c1c(N)cccc1S(=O)(=O)c1ccc([N+](=O)[O-])cc1 (centres undefined)
EC50 [2]: > 100 µM
CC50 [4]: > 200 µM

COc1ccc(OCC(=O)NCCCCNc2cccc3c2C(=O)N(C2CCC(=O)NC2=O)C3=O)cc1NC(=O)c1c(N)cccc1Sc1ccc([N+](=O)[O-])cc1 (centres undefined)
EC50 [2]: 34.8 µM
selectivity ratio [3]: > 5.76
CC50 [4]: > 200 µM

enfuvirtide
EC50 [13]: > 10 µM

COc1ccc(OCC(=O)NCCOCCOCCOCCNc2cccc3c2C(=O)N(C2CCC(=O)NC2=O)C3=O)cc1NC(=O)c1c(N)cccc1Sc1ccc([N+](=O)[O-])cc1 (centres undefined)
EC50 [2]: > 100 µM
CC50 [4]: > 200 µM

COc1ccc(OCC(=O)NCCOCCOCCOCCNCC(=O)Nc2cccc3c2C(=O)N(C2CCC(=O)NC2=O)C3=O)cc1NC(=O)c1c(N)cccc1Sc1ccc([N+](=O)[O-])cc1 (centres undefined)
EC50 [2]: > 100 µM
CC50 [4]: > 200 µM

COc1ccc(OCC(=O)NCCCCCCNCC(=O)Nc2cccc3c2C(=O)N(C2CCC(=O)NC2=O)C3=O)cc1NC(=O)c1c(N)cccc1S(=O)(=O)c1ccc([N+](=O)[O-])cc1 (centres undefined)
EC50 [2]: > 100 µM
CC50 [4]: > 200 µM

COc1ccc(OCC(=O)NCCOCCOCCNc2cccc3c2C(=O)N(C2CCC(=O)N(C)C2=O)C3=O)cc1NC(=O)c1c(N)cccc1Sc1ccc([N+](=O)[O-])cc1 (centres undefined)
Activity [14]: inactive

COc1ccc(OCC(=O)NCCCCCCCCCCNCC(=O)Nc2cccc3c2C(=O)N(C2CCC(=O)NC2=O)C3=O)cc1NC(=O)c1c(N)cccc1Sc1ccc([N+](=O)[O-])cc1 (centres undefined)
EC50 [2]: > 100 µM
CC50 [4]: > 200 µM

CC(C)CN(C[C@@H](O)[C@H](Cc1ccccc1)NC(=O)O[C@H]1CO[C@H]2OCC[C@H]21)S(=O)(=O)c1ccc(N)cc1 [DARUNAVIR]
EC50 [15]: < 0.032 µM

COc1ccc(OCC(=O)NCCOCCNc2cccc3c2C(=O)N(C2CCC(=O)NC2=O)C3=O)cc1NC(=O)c1c(N)cccc1S(=O)(=O)c1ccc([N+](=O)[O-])cc1 (centres undefined)
EC50 [2]: > 100 µM
CC50 [4]: > 200 µM

COc1ccc(OCC(=O)NCCOCCNCC(=O)Nc2cccc3c2C(=O)N(C2CCC(=O)NC2=O)C3=O)cc1NC(=O)c1c(N)cccc1S(=O)(=O)c1ccc([N+](=O)[O-])cc1 (centres undefined)
EC50 [2]: > 100 µM
CC50 [4]: > 200 µM

COc1ccc(OCC(=O)NCCOCCOCCNCC(=O)Nc2cccc3c2C(=O)N(C2CCC(=O)NC2=O)C3=O)cc1NC(=O)c1c(N)cccc1S(=O)(=O)c1ccc([N+](=O)[O-])cc1 (centres undefined)
EC50 [2]: 66.9 µM
selectivity ratio [3]: > 2.99
CC50 [4]: > 200 µM

From ChEMBL document CHEMBL6127009, “Discovery of L15 as a novel Vif PROTAC degrader with antiviral activity against HIV-1” (Bioorg Med Chem Lett, 2024)
